In PubChem BioAssay AID1963963 (Molecular Pharmacology Branch, DTP, NCI, 2024):

Tested on: 958667-338-R-J2-PDC tumor spheroids viability
Test: Anticancer human tumor 958667-338-R-J2-PDC patient-derived colon adenocarcinoma cell line growth inhibition [PI3K]
Settings: spheroids with HUVEC and MSC; for IC50: curve of first compound; for viability, T/C: stronger effect = lower value
How it was run: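 Targeted small molecules plus PI3K inhibitors, half-log dose series from Cmax (default top 10 microM), were applied to heterotypic spheroids of cancer cells with HUVEC and MSCs. Viability indicated growth inhibition.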

[1] = second compound 0.00316 µM, first compound 0.0316 µM
[2] = second compound 0.00316 µM, first compound 0.1 µM
[3] = second compound 0.00316 µM, first compound 0.316 µM
[4] = second compound 0.00316 µM, first compound 1 µM
[5] = second compound 0.00316 µM, first compound 3.16 µM
[6] = second compound 0.00316 µM, first compound 10 µM
[7] = second compound 0.01 µM, first compound 0.0316 µM
[8] = second compound 0.01 µM, first compound 0.1 µM
[9] = second compound 0.01 µM, first compound 0.316 µM
[10] = second compound 0.01 µM, first compound 1 µM
[11] = second compound 0.01 µM, first compound 3.16 µM
[12] = second compound 0.01 µM, first compound 10 µM
[13] = second compound 0.0316 µM, first compound 0.0316 µM
[14] = second compound 0.0316 µM, first compound 0.1 µM
[15] = second compound 0.0316 µM, first compound 0.316 µM
[16] = second compound 0.0316 µM, first compound 1 µM
[17] = second compound 0.0316 µM, first compound 3.16 µM
[18] = second compound 0.0316 µM, first compound 10 µM
[19] = second compound 0.1 µM, first compound 0.0316 µM
[20] = second compound 0.1 µM, first compound 0.1 µM
[21] = second compound 0.1 µM, first compound 0.316 µM
[22] = second compound 0.1 µM, first compound 1 µM
[23] = second compound 0.1 µM, first compound 3.16 µM
[24] = second compound 0.1 µM, first compound 10 µM
[25] = second compound 0.316 µM, first compound 0.0316 µM
[26] = second compound 0.316 µM, first compound 0.1 µM
[27] = second compound 0.316 µM, first compound 0.316 µM
[28] = second compound 0.316 µM, first compound 1 µM
[29] = second compound 0.316 µM, first compound 3.16 µM
[30] = second compound 0.316 µM, first compound 10 µM
[31] = second compound 1 µM, first compound 0.0316 µM
[32] = second compound 1 µM, first compound 0.1 µM
[33] = second compound 1 µM, first compound 0.316 µM
[34] = second compound 1 µM, first compound 1 µM
[35] = second compound 1 µM, first compound 3.16 µM
[36] = second compound 1 µM, first compound 10 µM
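Note: spheroids exposed to compounds for seven days before readout.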

`CC1(C)CCC(CN2CCN(c3ccc(C(=O)NS(=O)(=O)c4ccc(NCC5CCOCC5)c([N+](=O)[O-])c4)c(Oc4cnc5[nH]ccc5c4)c3)CC2)=C(c2ccc(Cl)cc2)C1` + COc1c(OCCCN2CCOCC2)ccc2c3n(c(=NC(=O)c4cnc(N)nc4)nc12)CCN3 was tested. Which IC50 (second compound 0.00316 µM) did it give?
Its IC50 is 6.52 µM.

And the IC50 (second compound 0.01 µM)?
The IC50 was 5.73 µM.

What about the IC50 (second compound 0.0316 µM) of the same compound?
The IC50 was 5.21 µM.

And the IC50 (second compound 0.1 µM)?
Its IC50 is 3.76 µM.

And the IC50 (second compound 0.316 µM)?
The IC50 was < 0.0316 µM.

What about the IC50 (second compound 1 µM) of the same compound?
The IC50 was < 0.0316 µM.

What about the viability, T/C [1] of the same compound?
The viability, T/C was 76.5%.

What about the viability, T/C [2] of the same compound?
Its viability, T/C is 96.3%.

And the viability, T/C [3]?
The viability, T/C was 80.3%.

What about the viability, T/C [4] of the same compound?
Its viability, T/C is 98.8%.

What about the viability, T/C [5] of the same compound?
The viability, T/C was 103%.

What about the viability, T/C [6] of the same compound?
Its viability, T/C is 25.6%.

What about the viability, T/C [7] of the same compound?
Its viability, T/C is 71.8%.

What about the viability, T/C [8] of the same compound?
Its viability, T/C is 85.9%.

What about the viability, T/C [9] of the same compound?
The viability, T/C was 72.5%.

And the viability, T/C [10]?
Its viability, T/C is 76.6%.

What about the viability, T/C [11] of the same compound?
The viability, T/C was 75.8%.

And the viability, T/C [12]?
Its viability, T/C is 25.9%.

And the viability, T/C [13]?
Its viability, T/C is 77.6%.

What about the viability, T/C [14] of the same compound?
The viability, T/C was 66.2%.

What about the viability, T/C [15] of the same compound?
The viability, T/C was 61.6%.

What about the viability, T/C [16] of the same compound?
Its viability, T/C is 69%.

What about the viability, T/C [17] of the same compound?
The viability, T/C was 80.6%.

And the viability, T/C [18]?
The viability, T/C was 22.6%.

And the viability, T/C [19]?
Its viability, T/C is 58%.

What about the viability, T/C [20] of the same compound?
Its viability, T/C is 53.4%.

And the viability, T/C [21]?
Its viability, T/C is 48.8%.

And the viability, T/C [22]?
The viability, T/C was 53.9%.

What about the viability, T/C [23] of the same compound?
Its viability, T/C is 69.6%.

What about the viability, T/C [24] of the same compound?
The viability, T/C was 11.9%.

What about the viability, T/C [25] of the same compound?
The viability, T/C was 45.8%.

And the viability, T/C [26]?
Its viability, T/C is 42.3%.

And the viability, T/C [27]?
The viability, T/C was 33.9%.

And the viability, T/C [28]?
The viability, T/C was 33.5%.

And the viability, T/C [29]?
Its viability, T/C is 32.5%.

What about the viability, T/C [30] of the same compound?
Its viability, T/C is 4.13%.

And the viability, T/C [31]?
The viability, T/C was 19.7%.

What about the viability, T/C [32] of the same compound?
Its viability, T/C is 15.1%.

What about the viability, T/C [33] of the same compound?
Its viability, T/C is 19%.

What about the viability, T/C [34] of the same compound?
The viability, T/C was 21.9%.

And the viability, T/C [35]?
The viability, T/C was 18.2%.

What about the viability, T/C [36] of the same compound?
Its viability, T/C is 2.25%.

`Cn1ncnc1[C@H]1c2n[nH]c(=O)c3cc(F)cc(c23)N[C@@H]1c1ccc(F)cc1` + COc1c(OCCCN2CCOCC2)ccc2c3n(c(=NC(=O)c4cnc(N)nc4)nc12)CCN3 was tested. Which IC50 (second compound 0.00316 µM) did it give?
The IC50 was > 0.1 µM.

And the IC50 (second compound 0.01 µM)?
Its IC50 is > 0.1 µM.

What about the IC50 (second compound 0.0316 µM) of the same compound?
Its IC50 is > 0.1 µM.

What about the IC50 (second compound 0.1 µM) of the same compound?
The IC50 was > 0.1 µM.

What about the IC50 (second compound 0.316 µM) of the same compound?
The IC50 was < 0.000316 µM.

And the IC50 (second compound 1 µM)?
The IC50 was < 0.000316 µM.

What about the viability, T/C (second compound 0.00316 µM, first compound 0.000316 µM) of the same compound?
Its viability, T/C is 96.3%.

And the viability, T/C (second compound 0.00316 µM, first compound 0.001 µM)?
Its viability, T/C is 104%.

And the viability, T/C (second compound 0.00316 µM, first compound 0.00316 µM)?
Its viability, T/C is 93.6%.

What about the viability, T/C (second compound 0.00316 µM, first compound 0.01 µM) of the same compound?
Its viability, T/C is 102%.

And the viability, T/C [1]?
The viability, T/C was 87.8%.

What about the viability, T/C [2] of the same compound?
The viability, T/C was 75.8%.

And the viability, T/C (second compound 0.01 µM, first compound 0.000316 µM)?
Its viability, T/C is 76.3%.

And the viability, T/C (second compound 0.01 µM, first compound 0.001 µM)?
Its viability, T/C is 72.5%.

What about the viability, T/C (second compound 0.01 µM, first compound 0.00316 µM) of the same compound?
Its viability, T/C is 94.2%.

And the viability, T/C (second compound 0.01 µM, first compound 0.01 µM)?
The viability, T/C was 90.7%.

What about the viability, T/C [7] of the same compound?
The viability, T/C was 80.5%.

And the viability, T/C [8]?
Its viability, T/C is 87.3%.

And the viability, T/C (second compound 0.0316 µM, first compound 0.000316 µM)?
The viability, T/C was 69.4%.

What about the viability, T/C (second compound 0.0316 µM, first compound 0.001 µM) of the same compound?
Its viability, T/C is 74.4%.

What about the viability, T/C (second compound 0.0316 µM, first compound 0.00316 µM) of the same compound?
The viability, T/C was 98.4%.

And the viability, T/C (second compound 0.0316 µM, first compound 0.01 µM)?
Its viability, T/C is 79.2%.

What about the viability, T/C [13] of the same compound?
The viability, T/C was 79.8%.

What about the viability, T/C [14] of the same compound?
Its viability, T/C is 61.9%.

And the viability, T/C (second compound 0.1 µM, first compound 0.000316 µM)?
Its viability, T/C is 62%.

What about the viability, T/C (second compound 0.1 µM, first compound 0.001 µM) of the same compound?
Its viability, T/C is 61.7%.

And the viability, T/C (second compound 0.1 µM, first compound 0.00316 µM)?
The viability, T/C was 59.6%.

What about the viability, T/C (second compound 0.1 µM, first compound 0.01 µM) of the same compound?
The viability, T/C was 66.8%.

What about the viability, T/C [19] of the same compound?
Its viability, T/C is 57.3%.

And the viability, T/C [20]?
Its viability, T/C is 56%.

What about the viability, T/C (second compound 0.316 µM, first compound 0.000316 µM) of the same compound?
The viability, T/C was 37%.

What about the viability, T/C (second compound 0.316 µM, first compound 0.001 µM) of the same compound?
The viability, T/C was 38%.

What about the viability, T/C (second compound 0.316 µM, first compound 0.00316 µM) of the same compound?
Its viability, T/C is 43.8%.

What about the viability, T/C (second compound 0.316 µM, first compound 0.01 µM) of the same compound?
The viability, T/C was 46.1%.

What about the viability, T/C [25] of the same compound?
The viability, T/C was 34.9%.

And the viability, T/C [26]?
Its viability, T/C is 34.9%.

And the viability, T/C (second compound 1 µM, first compound 0.000316 µM)?
The viability, T/C was 19.7%.

And the viability, T/C (second compound 1 µM, first compound 0.001 µM)?
Its viability, T/C is 15.6%.

What about the viability, T/C (second compound 1 µM, first compound 0.00316 µM) of the same compound?
The viability, T/C was 21.7%.

And the viability, T/C (second compound 1 µM, first compound 0.01 µM)?
The viability, T/C was 21.1%.

And the viability, T/C [31]?
Its viability, T/C is 22.5%.

What about the viability, T/C [32] of the same compound?
Its viability, T/C is 14.9%.

What does the source list for `CC1(C)CCC(CN2CCN(c3ccc(C(=O)NS(=O)(=O)c4ccc(NCC5CCOCC5)c([N+](=O)[O-])c4)c(Oc4cnc5[nH]ccc5c4)c3)CC2)=C(c2ccc(Cl)cc2)C1` + CC(Nc1ccc2c(c1)OCCn1cc(N3C(=O)OCC3C(F)F)nc1-2)C(N)=O?
IC50 (second compound 0.00316 µM): > 10 µM; IC50 (second compound 0.01 µM): 9.01 µM; IC50 (second compound 0.0316 µM): 7.32 µM; IC50 (second compound 0.1 µM): 6.41 µM; IC50 (second compound 0.316 µM): 4.7 µM; IC50 (second compound 1 µM): > 10 µM; viability, T/C [1]: 92.8%; viability, T/C [2]: 116%; viability, T/C [3]: 95.6%; viability, T/C [4]: 111%; viability, T/C [5]: 102%; viability, T/C [6]: 69.5%; viability, T/C [7]: 91.6%; viability, T/C [8]: 89.3%; viability, T/C [9]: 91.2%; viability, T/C [10]: 87.3%; viability, T/C [11]: 86.3%; viability, T/C [12]: 46.4%; viability, T/C [13]: 84.2%; viability, T/C [14]: 118%; viability, T/C [15]: 86%; viability, T/C [16]: 97.9%; viability, T/C [17]: 86.9%; viability, T/C [18]: 36.1%; viability, T/C [19]: 72%; viability, T/C [20]: 79.7%; viability, T/C [21]: 74.3%; viability, T/C [22]: 77.4%; viability, T/C [23]: 96.6%; viability, T/C [24]: 31%; viability, T/C [25]: 71.7%; viability, T/C [26]: 59.5%; viability, T/C [27]: 67.5%; viability, T/C [28]: 71.8%; viability, T/C [29]: 70.1%; viability, T/C [30]: 15.5%; viability, T/C [31]: 49%; viability, T/C [32]: 60.7%; viability, T/C [33]: 63%; viability, T/C [34]: 63.4%; viability, T/C [35]: 60.7%; viability, T/C [36]: 35.5%
